# Patent publication US20220098228A1, “METHODS AND COMPOSITIONS FOR IMPROVING THE IMMUNE SYSTEM AND PROVIDING IMMUNO-PROTECTION” (Natreon, Inc., priority 2020, published 2022)
# Marks after values point to notes of the source that are not given here.
# How the values were obtained:
# Swiss albino mice = test: Cyclophosphamide-induced immunosuppression in mice, overall conclusion (Example II); type: in vivo; details: treatment for 7 days at 10 mg/kg body weight (p.o.)
# Protocol: All experiments were conducted between 10.00 hr and 14.00 hr. […] Control animals received equivalent volume of the vehicles CMC (0.3%) solutions only.
# peritoneal macrophages [1] = test: NBT reduction assay in peritoneal macrophages, cyclophosphamide-induced immunosuppression (Example II); type: in vivo, Swiss albino mice; details: for OD (515 nm), NBT reduction assay in peritoneal macrophages: 10 mg/kg body weight p.o. 7 days + cyclophosphamide 250 mg/kg i.p., Mean ± SD, n = 6; for improvement in NBT reduction capacity: 10 mg/kg body weight p.o., in comparison with cyclophosphamide treated mice
# Protocol: (§1) The mice were acclimatized for one week in the laboratory conditions, before being used in the experiment. All experiments were conducted between 10.00 hr and 14.00 hr. Principles of laboratory animal care (NIH publication no. 85-23, revised 1985) were followed.
# (§2) All test compounds (DBPs and DBP glycosides) were suspended in 0.3% of CMC (Carboxymethyl Cellulose) solutions of distilled water and were administered orally for 7 days by using an intubation canula. The volume of dose was 100 μl/10 g body weight. Cyclophosphamide was dissolved in distilled water and was injected (250 mg/kg, i.p.) on day one and volume of dose was 100 μl/10 g body weight. Control animals received equivalent volume of the vehicles CMC (0.3%) solutions only.
# On day seven all the animals were sacrificed under ether anesthesia and peritoneal macrophages were lavaged using ice cold phosphate buffer saline (PBS: 0.15M NaCl pH-7.4). After centrifugation (3000 rpm×10 min) at 4° C. the pellet was re-suspended in PBS and cell viability was confirmed by trypan blue exclusion method. (Bala A, Haldar P K, Kar B, Naskar S and Mazumder U K, “Carbon tetrachloride: A hepatotoxin causes oxidative stress in murine peritoneal macrophage and peripheral blood lymphocyte cells” Immunopharmacol. and Immunotoxicol. 34(1): 157-162 (2012)).
# Preparation of NBT solution: 0.2% NBT (nitroblue tetrazolium) in PB (Phosphate Buffer, pH 7.4), 5% dextrose and HBSS (Hank's balanced salt solution). The three solutions were mixed in 6:2:4 ratios. (Saxena A K, Singh K P, Srivastava S N, Shukla L J and Shanker R., “Immunomodulating effects of caffeine in rodents” Ind J Exptl Biol. 22: 298-301 (1984)).
# Method: 0.5 ml of NBT solution was added to 0.5 ml of peritoneal macrophages (1×10^6 cells/ml) in a micro-centrifuge tube. This mixture was incubated at 37° C. for 45 minutes. The cell suspension was centrifuged at 1500 rpm for 10 minutes. Supernatant was discarded and pellet was re-suspended in 2 ml of DMSO. The tubes were kept in a boiling water bath for 10 minutes. The tubes were again centrifuged at 1500 rpm for 10 minutes. The supernatant was collected, and absorbance was measured at 515 nm.
# splenocytes [2] = test: Cell viability of splenocytes, trypan blue exclusion, cyclophosphamide-induced immunosuppression (Example II); type: in vivo, Swiss albino mice; details: for % Cell Viability of splenocytes: 10 mg/kg body weight p.o. 7 days + cyclophosphamide 250 mg/kg i.p., Mean ± SD, n = 6
# Protocol: as §1, §2
# Spleen was collected. Single cell suspension was prepared by mincing and tapping the spleen fragments on stainless steel 200-mesh in ice cold phosphate buffer saline (PBS: 0.15M NaCl pH 7.4). Cell suspension was centrifuged at 2000 rpm for 10 minutes. The pellet was re-suspended in PBS and cell viability was confirmed by trypan blue exclusion method.
# splenocytes [3] = test: Splenocyte viability, trypan blue exclusion (Example III); type: in vivo, Swiss albino mice; details: for % Viability Day7, splenocyte viability: Day 7
# Protocol: (§3) Male and female Swiss albino mice (n=8; 4 from each gender) weighing approximately 25±5 g, were obtained from National Research Institute of Ayurveda for Drug Development (Govt. of India), Kolkata, and were housed in polypropylene cages at 22±3° C., relative air humidity of 45 to 55%, with 12.00 h light & dark cycle (lighting on from 6:00 AM to 6:00 PM). […] The mice were acclimatized for one week in the laboratory conditions, before being used in the experiment. All experiments were conducted between 10.00 h and 14.00 h. Principles of laboratory animal care (NIH publication no. 85-23, revised 1985) was followed.
# (§4) Cyclophosphamide was dissolved in distilled water and the mice were administered a single exposure (250 mg/kg, i.p.) on day 1.
# (§5) 3-OH-DBP, 3,8-(OH)2-DBP, and combined 3-OH-DBP+3,8-(OH)2-DBP were administered once daily for 7 days starting from day 1. Following 7 days of treatment the mice were anaesthetized and sacrificed under anaesthesia followed by collection of peritoneal macrophages and spleen (for splenocyte isolation).
# (§6) Swiss albino mice were randomly divided into 8 Groups (n=8; 4 from each gender). […] (2:10) (12 mg/kg b.w., p.o.), Group VI mice were administered 3-OH-DBP (10 mg/kg b.w., p.o.), Group VII mice were administered 3,8-(OH)2-DBP (50 mg/kg b.w., p.o.), Group VIII mice were administered [3-OH-DBP+3,8-(OH)2-DBP] (10:50) (60 mg/kg b.w., p.o.).
# Spleens were collected and single cell suspension was prepared by mincing and tapping the spleen fragments on stainless steel 200-mesh in ice cold phosphate buffer saline (PBS: 0.15M NaCl; pH: 7.4). Cell suspensions were centrifuged at 2000 rpm for 10 minutes.
# (§7) Results were expressed in terms of mean±SEM (n=8; 4 from each gender). Data were subjected to one way ANOVA followed by Tukey's test using GraphPad Prism 4.0 software to establish statistical significance (*p<0.05, **p<0.01, ***p<0.001, where * refers to comparison with Group I vehicle control; #p<0.05, ##p<0.01, ###p<0.001, where #refers to comparison with Group II cyclophosphamide administration; ^ap<0.05, ^aap<0.01, ^aap<0.01, where a refers to comparison of Day 7 with Day 0).
# peritoneal macrophages [4] = test: Peritoneal macrophage viability, trypan blue exclusion (Example III); type: in vivo, Swiss albino mice
# Protocol: as §3, §4, §5, §6
# (§8) All the animals were sacrificed under ether anesthesia and peritoneal macrophages were lavaged using ice cold phosphate buffer saline (PBS: 0.15 M NaCl; pH: 7.4). After centrifugation (3000 rpm×10 min) at 4° C., pellets were re-suspended in PBS and cell viability was confirmed by trypan blue exclusion assay.
# as §7
# peritoneal macrophages [5] = test: NBT reduction of peritoneal macrophages (Example III); type: in vivo, Swiss albino mice; details: for NBT reduction compared with cyclophosphamide treated mice: 3,8-(OH)2-DBP 50 mg/kg, combined 12 and 60 mg/kg; for NBT reduction compared with vehicle control: cyclophosphamide, 3-OH-DBP 2 and 10 mg/kg, combined 12 mg/kg
# Protocol: as §3, §4, §5, §6, §8
# Preparation of NBT solution: 0.2% NBT (nitroblue tetrazolium) in PBS (pH 7.4), 5% dextrose and HBSS. These three solutions were mixed in 6:2:4 ratios.
# 0.5 ml of NBT solution was added to 0.5 ml of peritoneal macrophages (1×10^6 cells/ml) in micro-centrifuge tube. This mixture was incubated at 37° C. for 2 hours. The cell suspension was centrifuged at 2000 rpm for 10 minutes. Supernatants were discarded and pellets were re-suspended in 1 ml of DMSO. The tubes were kept in boiling water bath for 10 minutes and then cooled and centrifuged at 2000 rpm for 10 minutes. The supernatants were collected and absorbance was measured at 515 nm.
# as §7
# [6] = mouse, in vivo
# Protocol: as §3, §4, §5, §6, §7
# [7] = female mice, 3-OH-DBP 2 and 10 mg/kg, 3,8-(OH)2-DBP 10 and 50 mg/kg, combined 12 and 60 mg/kg
# [8] = female mice, 10 mg/kg p.o. + cyclophosphamide 250 mg/kg i.p.
# [9] = female mice, 50 mg/kg p.o. + cyclophosphamide 250 mg/kg i.p.
# [10] = male mice, 3-OH-DBP 10 mg/kg, 3,8-(OH)2-DBP 50 mg/kg, combined 60 mg/kg
# [11] = male mice, 10 mg/kg p.o. + cyclophosphamide 250 mg/kg i.p.
# [12] = male mice, 50 mg/kg p.o. + cyclophosphamide 250 mg/kg i.p.
smiles,measurement,setting,value
"O=c1oc2cc(OC3OC(CO)C(O)C(O)C3O)ccc2c2ccc(OC3OC(CO)C(O)C(O)C3O)cc12 [3,8-(OH)2-DBP glycoside, 3,8-di-(O-D-Glucopyranosyl)-Dibenzo-alpha-pyrone]",Cyclophosphamide-induced immunosuppression (conclusion),Swiss albino mice,rescued
same,"OD (515 nm), NBT reduction assay in peritoneal macrophages",peritoneal macrophages [1],0.153 ± 0.013
same,improvement in NBT reduction capacity,peritoneal macrophages [1],moderate (p<0.05) improvement
same,% Cell Viability of splenocytes,splenocytes [2],58.58 ± 4.49%
"O=c1oc2cc(OC3OC(CO)C(O)C(O)C3O)ccc2c2ccccc12 [3-OH-DBP glycoside, 3-O-D-Glucopyranosyl-Dibenzo-alpha-pyrone]",Cyclophosphamide-induced immunosuppression (conclusion),Swiss albino mice,rescued
same,"OD (515 nm), NBT reduction assay in peritoneal macrophages",peritoneal macrophages [1],0.168 ± 0.014
same,improvement in NBT reduction capacity,peritoneal macrophages [1],highest level of improvement
same,% Cell Viability of splenocytes,splenocytes [2],60.39 ± 5.85 %
same,improvement in splenocyte viability,splenocytes [2]; 10 mg/kg p.o. in cyclophosphamide-treated mice,significant improvement
"O=c1oc2cc(O)ccc2c2ccc(O)cc12 [3,8-(OH)2-DBP, 3,8-dihydroxy-dibenzo-alpha-pyrone]",splenocyte viability compared with cyclophosphamide treated mice,splenocytes [3]; [7],"significantly (p<0.05, p<0.01, p<0.001) increased"
same,"% Viability Day7, splenocyte viability",splenocytes [3]; [8],89.50 ± 2.30# %
same,"% Viability Day7, splenocyte viability",splenocytes [3]; [9],90.87 ± 1.98## %
same,restoration of splenocyte viability,"splenocytes [3]; male mice, 50 mg/kg 3,8-(OH)2-DBP (Group VII), 60 mg/kg DBP combination (Group VIII)",restored
same,splenocyte viability compared with cyclophosphamide treated mice,splenocytes [3]; [10],significantly higher
same,"% Viability Day7, splenocyte viability",splenocytes [3]; [11],68.69 ± 2.21*** %
same,"% Viability Day7, splenocyte viability",splenocytes [3]; [12],90.14 ± 0.36## %
same,splenocyte viability compared with vehicle control,"splenocytes [3]; male mice, cyclophosphamide, 2 mg/kg 3-OH-DBP, 10 mg/kg 3,8-(OH)2-DBP, 12 mg/kg combined",similarly decreased
same,peritoneal macrophage viability compared with cyclophosphamide treated mice,peritoneal macrophages [4]; [7],"significantly (p<0.05, p<0.01) increased"
same,"% Viability Day 7, peritoneal macrophage viability",peritoneal macrophages [4]; [8],65.78 ± 2.38** %
same,"% Viability Day 7, peritoneal macrophage viability",peritoneal macrophages [4]; [9],75.27 ± 0.53^# %
same,peritoneal macrophage viability compared with cyclophosphamide treated mice,peritoneal macrophages [4]; [10],"significantly (p<0.05, p<0.01) increased"
same,"% Viability Day 7, peritoneal macrophage viability",peritoneal macrophages [4]; [11],60.34 ± 1.84%
same,"% Viability Day 7, peritoneal macrophage viability",peritoneal macrophages [4]; [12],70.91 ± 1.24# %
same,peritoneal macrophage viability compared with vehicle control,"peritoneal macrophages [4]; male mice, cyclophosphamide, 3-OH-DBP 2 mg/kg, 3,8-(OH)2-DBP 10 mg/kg",significantly (p<0.05) decreased
same,"OD (515 nm), NBT reduction assay in peritoneal macrophages",peritoneal macrophages [1],0.144 ± 0.010^
same,NBT reduction compared with cyclophosphamide treated mice,"peritoneal macrophages [5]; female mice, 3-OH-DBP 10 mg/kg","significantly (p<0.05, p<0.01, p<0.001) increased"
same,"O.D. (515 nm) Day 7, NBT reduction of peritoneal macrophages",peritoneal macrophages [5]; [8],0.159 ± 0.02***
same,"O.D. (515 nm) Day 7, NBT reduction of peritoneal macrophages",peritoneal macrophages [5]; [9],"0.294 ± 0.008*,###"
same,NBT reduction compared with vehicle control,"peritoneal macrophages [5]; female mice, 3,8-(OH)2-DBP 10 and 50 mg/kg","significantly (p<0.05, p<0.01, p<0.001) decreased"
same,NBT reduction compared with cyclophosphamide treated mice,"peritoneal macrophages [5]; male mice, NBT reduction capacity increased","significantly (p<0.05, p<0.01, p<0.001) reversed"
same,"O.D (515 nm) Day 7, NBT reduction of peritoneal macrophages",peritoneal macrophages [5]; [11],0.294 ± 0.04499***
same,"O.D (515 nm) Day 7, NBT reduction of peritoneal macrophages",peritoneal macrophages [5]; [12],0.476 ± 0.07172##
same,NBT reduction compared with vehicle control,"peritoneal macrophages [5]; male mice, 3,8-(OH)2-DBP 10 mg/kg","significantly (p<0.01, p<0.001) decreased"
same,body weight Day 7 in comparison to Day 0,[6],significantly (p<0.05) decreased
same,feed intake Day 7 in comparison to Day 0,[6],"significantly (p<0.05, p<0.01) decreased"
same,feed intake compared to vehicle control,[6],"significantly (p<0.05, p<0.01) decreased"
same,water intake compared with cyclophosphamide treated mice,[6],significantly (p<0.001) decreased
same,water intake compared with vehicle control,[6],significantly (p<0.001) decreased
same,water intake compared with vehicle control and cyclophosphamide treated mice,[6],"significantly (p<0.05, p<0.001) decreased"
same,% Cell Viability of splenocytes,splenocytes [2],54.90 ± 5.01%
